# Results published in patent US20190241569A1, “3-(ARYL OR HETEROARYL) METHYLENEINDOLIN-2-ONE DERIVATIVES AS INHIBITORS OF CANCER STEM CELL PATHWAY KINASES FOR THE TREATMENT OF CANCER” (Boston Biomedical, Inc., priority 2013, published 2019).
# Where two headings read alike, the source gives them in different places.
# What was measured:
# FaDu CSC = experiment: Cancer stem cells, Cell Titer-Glo 72 hours (Test Example 3); assay type: cell-based; conditions: Homo sapiens, FaDu, 72 h
# p-AMPK Thr172 = experiment: Kinase inhibition, Western blot in HeLa cells (Test Example 5); assay type: cell-based; conditions: Homo sapiens, 6 hours, DMSO = 100, read-out: p-AMPK Relative Intensity (%)
# Protocol: (§1) HeLa cells were treated with 5 uM of the indicated compound for 6 hours. Following compound incubation, cells were washed twice with ice-cold PBS and lysed in lysis buffer (50 mM HEPES, pH 7.5, 1% Nonidet P40, 150 mM NaCl, 1 mM EDTA, 1× protease inhibitor cocktail (Promega)). 30 micrograms of soluble protein was separated by SDS-PAGE and transferred to PVDF membranes. Primary antibodies against p-AMPK Thr172, p-RPS6 Ser235/236, p-RPS6 Ser240/244, and Tubulin (Cell Signaling Technology) were used. The antigen-antibody complexes were visualized by enhanced chemiluminescence (BioRad). The results are shown below in Tables 17A-17E.
# p-RPS6 Ser240/244 = experiment: as above; assay type: cell-based; conditions: Homo sapiens, 6 hours, DMSO = 100, read-out: p-RPS6 Ser240/244 Relative Intensity (%)
# Protocol: as §1
# p-RPS6 Ser235/236 = experiment: as above; assay type: cell-based; conditions: Homo sapiens, 6 hours, DMSO = 100, read-out: p-RPS6 Ser235/236 Relative Intensity (%)
# Protocol: as §1
# FaDu = experiment: Bulk cancer cells, Cell Titer-Glo 72 hours (Test Example 2); assay type: cell-based; conditions: Homo sapiens
# Protocol: (§2) Tubes of 3× drug (60 uM in 500 uL complete media) were prepared from 5 mM stock solutions in DMSO. […] To treat cells, 50 uL of drug from the dilution plate was removed and added to the cell plates. […] Cells were harvested 72 hours after drug addition using Cell Titer-Glo (Promega) and luminescence measured on a plate reader.
# ACHN CSC = experiment: Cancer stem cells, Cell Titer-Glo 72 hours (Test Example 3); assay type: cell-based; conditions: Homo sapiens, ACHN, 72 h
# human RIOK2 protein = target: T1, human RIOK2 protein (Homo sapiens, UniProt Q9BVS4); experiment: RIOK2 autophosphorylation ELISA (Test Example 4); assay type: biochemical
# T1 construct: glutathione S-transferase is fused to N-terminal of a full-length human RIOK2 protein; GST (glutathione S-transferase) (N); purchased CarnaBio, Inc; host or cells: baculovirus-Sf21 cell expression system
# T1 sequence (Q9BVS4 whole entry, the tested form may be a part): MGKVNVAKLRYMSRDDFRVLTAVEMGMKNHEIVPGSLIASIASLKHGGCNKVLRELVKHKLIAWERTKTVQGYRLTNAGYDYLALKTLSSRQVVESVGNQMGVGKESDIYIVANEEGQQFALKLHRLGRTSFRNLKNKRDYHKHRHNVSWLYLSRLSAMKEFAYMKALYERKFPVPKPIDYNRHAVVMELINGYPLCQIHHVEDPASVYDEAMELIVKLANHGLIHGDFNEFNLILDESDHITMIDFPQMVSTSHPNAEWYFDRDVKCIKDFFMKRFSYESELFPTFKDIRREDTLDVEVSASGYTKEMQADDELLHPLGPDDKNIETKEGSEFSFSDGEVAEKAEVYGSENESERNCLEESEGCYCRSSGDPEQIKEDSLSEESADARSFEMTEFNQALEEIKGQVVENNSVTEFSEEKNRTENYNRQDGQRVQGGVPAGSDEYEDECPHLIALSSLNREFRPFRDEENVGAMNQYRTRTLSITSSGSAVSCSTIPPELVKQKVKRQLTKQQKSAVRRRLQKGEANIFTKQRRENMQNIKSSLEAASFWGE
# Protocol: A protein in which glutathione S-transferase is fused to N-terminal of a full-length human RIOK2 protein was used as a recombinant human RIOK2 protein. The protein was prepared using a baculovirus-Sf21 cell expression system from CarnaBio, Inc. A kinase reaction solution was prepared by mixing 25 μg/mL of the recombinant human RIOK2 protein and 100 μM of ATP in 20 μl of kinase reaction buffer (50 mM Tris-HCl, 10 mM MgCl2, 10 mM MnCl2, 1 mM DTT, 0.01% Brij, 1× PhosSTOP (manufactured by Roche Applied Science)), and was incubated at a temperature of 30° C. for 1 hour. After adding 30 μl of 40 mM EDTA solution to this kinase reaction solution, the kinase reaction solution was transferred to a MaxiSorp 96 well plate (manufactured by Nunc). Thereafter, phosphorylated human RIOK2 protein was allowed to adsorb onto the wells by leaving the plate in a refrigerator overnight.
# The following day, the supernatant was removed, and the wells were washed three times with ELISA buffer (20 mM Tris-HCl, 150 mM NaCl, 0.2% Tween-20, 0.1% BSA). Thereafter, 100 μl of Blocking-One P (product name; manufactured by Nacalai Tesque, Inc.) was applied to the wells, and a blocking treatment was performed for 1 hour at room temperature. […] After further washing the wells, a secondary antibody, anti-rabbit IgG conjugated with horseradish peroxidase (manufactured by Jackson ImmunoResearch; 1/4000 ELISA buffer-diluted solution), was applied to the wells, and incubation was performed for 30 minutes at room temperature. After washing the wells once again, 50 μl of tetramethyl benzidine (TMB) aqueous solution (manufactured by Nacalai Tesque, Inc.) was applied to the wells, and a coloring reaction was performed for 30 minutes at room temperature. Thereafter, the coloring reaction was stopped by adding 50 μl of 2M H2SO4 to the wells. An absorptiometric level of 450 nm was measured in each well using ARVO SX (manufactured by Wallac).
# ACHN = experiment: Bulk cancer cells, Cell Titer-Glo 72 hours (Test Example 2); assay type: cell-based; conditions: Homo sapiens, ACHN, 72 h
# Protocol: as §2
# A549 = experiment: as above; assay type: cell-based; conditions: Homo sapiens
# Protocol: as §2
# A549 CSC = experiment: Cancer stem cells, Cell Titer-Glo 72 hours (Test Example 3); assay type: cell-based; conditions: Homo sapiens
Structure (SMILES),IC50 (FaDu CSC),IC50 (FaDu),IC50 (ACHN CSC),inhibition at 1 µM (human RIOK2 protein; read-out: Inhibitory activity at 1 μM (%)),inhibition at 10 µM (human RIOK2 protein; read-out: Inhibitory activity at 10 μM (%)),IC50 (ACHN),IC50 (A549),IC50 (A549 CSC),activity at 5 µM (p-AMPK Thr172; 5 uM),activity at 5 µM (p-RPS6 Ser240/244; 5 uM),activity at 5 µM (p-RPS6 Ser235/236; 5 uM),"activity at 5 µM (p-AMPK Thr172; 5 uM compound, Western blot)","activity at 5 µM (p-RPS6 Ser240/244; 5 uM compound, Western blot)","activity at 5 µM (p-RPS6 Ser235/236; 5 uM compound, Western blot)"
CCN(CC)CCNC(=O)c1c(C)[nH]c(/C=C2\C(=O)Nc3cc(-c4ccc(-c5ccccc5)s4)ccc32)c1C [Example 15],30.5 µM,,,,,,,,150%,56%,5%,,,
CCN(CC)CCNC(=O)c1c(C)[nH]c(/C=C2\C(=O)Nc3ccc(-c4ccc(-c5cccs5)s4)cc32)c1C [Example 27],0.83 µM,2.51 µM,,,,,,,21%,41%,5%,,,
Cc1[nH]c(/C=C2\C(=O)Nc3cc(-c4ccc(-c5ccccc5)s4)ccc32)c(C)c1C(=O)N1CCN(C)CC1 [Example 29],,,,,,,,,108%,68%,36%,,,
CCN(CC)CCNC(=O)c1c(C)[nH]c(/C=C2\C(=O)Nc3ccc(-c4cnn(-c5ccccn5)c4)cc32)c1C [Example 32],0.05 µM,0.51 µM,0.13 µM,36%,86%,1.24 µM,1.72 µM,2.53 µM,,,,,,
Cc1[nH]c(/C=C2\C(=O)Nc3cc(-c4csc(-c5ccccc5)n4)ccc32)c(C)c1C(=O)N1CCOCC1 [Example 36],41.9 µM,,,,,,,,118%,44%,4%,,,
CCN(CC)CCNC(=O)c1c(C)[nH]c(/C=C2\C(=O)Nc3cc(-c4oc(-c5ccccc5)nc4C)ccc32)c1C [Example 37],8.09 µM,3.55 µM,1.65 µM,,,2.97 µM,7.49 µM,,151%,43%,4%,,,
Cc1nc(-c2ccccc2)oc1-c1ccc2c(c1)NC(=O)/C2=C\c1[nH]c(C)c(C(=O)N2CCN(C)CC2)c1C [Example 38],1.6 µM,,0.5 µM,,,,,,103%,21%,2%,,,
"CCN(CC)CCNC(=O)c1c(C)[nH]c(/C=C2\C(=O)Nc3ccc(-c4nc(-c5ccccc5)cs4)cc32)c1C [Example 51, (Z)-N-(2-(diethylamino)ethyl)-2,4-dimethyl-5-((2-oxo-5-(4-phenylthiazol-2-yl)indolin-3-ylidene)methyl)-1H-pyrrole-3-carboxamide]",0.27 µM,1.18 µM,,,,1.64 µM,4.74 µM,4.28 µM,12%,64%,21%,,,
Cc1[nH]c(/C=C2\C(=O)Nc3cccc(-c4ccc(-c5ccccc5)cc4)c32)c(C)c1C(=O)N1CCN(C)CC1 [Example 110],1.21 µM,7.56 µM,,,,14.9 µM,21.5 µM,5.76 µM,105%,36%,2%,,,
COC(=O)c1c(C)[nH]c(/C=C2\C(=O)Nc3ccc(-c4csc(C5CCNCC5)n4)cc32)c1C [Example 144],0.22 µM,0.69 µM,,,,0.52 µM,0.7 µM,2.48 µM,79%,83%,70%,,,
COc1ncccc1-c1cccc2c1/C(=C/c1[nH]c(C)cc1C)C(=O)N2 [Example 271],,22.6 µM,,,,,,,,,,105%,67%,67%
Cc1cc(C)c(/C=C2\C(=O)Nc3cccc(-c4ccc5cc[nH]c5c4)c32)[nH]1 [Example 273],,16.4 µM,18.9 µM,,,20.4 µM,16.6 µM,20.2 µM,,,,27%,35%,36%

# Now from value to compound, other results behind:
IC50 (FaDu CSC),IC50 (FaDu),IC50 (ACHN CSC),inhibition at 1 µM (human RIOK2 protein; read-out: Inhibitory activity at 1 μM (%)),inhibition at 10 µM (human RIOK2 protein; read-out: Inhibitory activity at 10 μM (%)),IC50 (ACHN),IC50 (A549),IC50 (A549 CSC),Structure (SMILES),activity at 5 µM (p-AMPK Thr172; 5 uM),activity at 5 µM (p-RPS6 Ser240/244; 5 uM),activity at 5 µM (p-RPS6 Ser235/236; 5 uM),"activity at 5 µM (p-AMPK Thr172; 5 uM compound, Western blot)","activity at 5 µM (p-RPS6 Ser240/244; 5 uM compound, Western blot)","activity at 5 µM (p-RPS6 Ser235/236; 5 uM compound, Western blot)"
,28.4 µM,,,,28.3 µM,24.4 µM,43.4 µM,COc1ccc(-c2cccc3c2NC(=O)/C3=C\c2[nH]c(C)cc2C)cn1 [Example 274],,,,91%,59%,63%
,28.1 µM,,,,26.9 µM,25.2 µM,,Cc1cc(C)c(/C=C2\C(=O)Nc3c2cccc3-c2cncnc2)[nH]1 [Example 276],,,,113%,50%,51%
,35.3 µM,,,,28.1 µM,21.1 µM,,COc1ncc(-c2cccc3c2/C(=C/c2[nH]c(C)cc2C)C(=O)N3)cn1 [Example 277],,,,145%,75%,77%
,39.7 µM,,,,16.8 µM,16.3 µM,,Cc1cc(C)c(/C=C2\C(=O)Nc3cccc(-c4cncnc4)c32)[nH]1 [Example 278],,,,198%,43%,44%
,25.8 µM,,,,21 µM,19.7 µM,,Cc1cc(C)c(/C=C2\C(=O)Nc3c2cccc3-c2cncc3ccccc23)[nH]1 [Example 279],,,,108%,83%,86%
,,,,,,23.5 µM,,Cc1cc(C)c(/C=C2\C(=O)Nc3c2cccc3-c2ccncc2)[nH]1 [Example 281],,,,83%,65%,68%
